According to patent US20100035755A1, “METHOD OF CONTROLLING WEEDS IN A TURF GRASS BY USING SULFONYLUREA COMPOUNDS” (Moghu Research Center Ltd., priority 2008, published 2010):

How the values were obtained:
Zoysia japonica = test: Turf grass selectivity, greenhouse pot test; format: in vivo; conditions: Zoysia japonica
From the text: (§1) Turf mats of Zoysia grass, bentgrass, Kentucky bluegrass, or perennial rye grass known as cool season turfgrass or western grass were purchased and cut into a piece having 10 cm×20 cm size. Then, each piece was transplanted in a rectangular plastic pot (surface area of 300 cm^2) in which sandy loam and mixed top soil (Boo-Nong Top Soil No. 3, for horticultural use) are filled in 1:1 ratio. After the transplantation, the grasses were cut once a week to maintain the blade height at 0.5-1.0 cm and cultivated for one month in a green house of which temperature was kept at 25˜30° C. for daytime and 15˜25° C. for nighttime, respectively. Then, the ‘test chemical’ of the above Examples 1 and 2 or ‘control chemical’ was applied thereto in an amount of 400, 200, 100, 50, 25, 12, 6, 3 g ai/ha. As a “control chemical”, pyrazolsulfuron ethyl wettable agent (manufactured by Dongbu Fine Chemicals; herein after, referred to as ‘control chemical No. 1’) and flazasulfuron (manufactured by Dongbu HiTek; herein after, referred to as ‘control chemical No. 2’), both sulfonylurea herbicides for a turf grass, were used. Application was carried out by using a track sprayer (R&D Sprayer, USA) equipped with Teejet 8002 nozzle (Spraying Systems Co., USA), and the application amount was adjusted to 2,000 L/ha, which is a typical application amount for a golf course in Korea. Application solution was prepared by diluting the “test chemical” or the “control chemical” with tap water. […] The test was repeated three times in a random arrangement and the results are given in average value of each test (see Table 2 below).

Kentucky bluegrass = test: Turf grass selectivity, greenhouse pot test; format: in vivo, Poa pratensis
From the text: as §1

Portulaca oleracea = test: Weed spectrum, greenhouse pot test; format: in vivo; conditions: two weeks after application
From the text: (§2) To a rectangular plastic pot (surface area of 300 cm^2) in which sandy loam and mixed top soil (Boo-Nong Top Soil No. 3, for horticultural use) are filled in 1:1 ratio, eight different kinds of weed seeds including Poa annua and Digitaria sanguinalis as poaceae weed, Cyperus amuricus as cyperaceae weeds and Trifolium repens, Kummerowia striata, fleabane, Veronica officinalis and Portulaca oleracea as broadleaf weeds were sewn (50 to 100 seeds per each weed). These weeds are representative examples of the weeds which typically thrive in a turf grass field.
(§3) The pot was kept in a greenhouse which was maintained at 25˜30° C. for daytime and 15˜25° C. for nighttime, respectively, and irrigation was carried out regularly. Fourteen days after seeding, when the turf grass and the weeds reached approximately at three-leaf stage, the weed seeds were again sewn in separate two pots or “Test chemical” and “Control chemical” were applied in the same manner as the method described above. In this regard, when plants were cultivated for two weeks and then the chemical application was carried out, it is designated as “post-emergence” treatment. On the other than, when the seeding was carried right before the chemical application, it is designated as “pre-emergence” treatment. Preparation of a chemical solution, application method, etc. are the same as above described for evaluation of turf grass selectivity. Two weeks after the chemical application, efficacy of the chemicals for each type of the weeds was evaluated (visual evaluation) based on 0 to 100 scale (i.e., 0 indicates no efficacy and 100 indicates complete weed control).

Cyperus amuricus = test: Weed spectrum, greenhouse pot test; format: in vivo; conditions: two weeks after application
From the text: as §2, §3

Kummerowia striata = test: Weed spectrum, greenhouse pot test; format: in vivo; conditions: two weeks after application
From the text: as §2, §3

Trifolium repens = test: Weed spectrum, greenhouse pot test; format: in vivo; conditions: two weeks after application
From the text: as §2, §3

Digitaria sanguinalis = test: Weed spectrum, greenhouse pot test; format: in vivo; conditions: two weeks after application
From the text: as §2, §3

Veronica officinalis = test: Weed spectrum, greenhouse pot test; format: in vivo; conditions: two weeks after application
From the text: as §2, §3

Poa annua = test: Weed spectrum, greenhouse pot test; format: in vivo; conditions: two weeks after application
From the text: as §2, §3

In the case of `Cc1cc(C)nc(NC(=O)NS(=O)(=O)c2ccccc2C(O)C(C)F)n1` (stereo not shown) [Example 1], the “phytotoxicity (visual assessment 0-10)” value (Zoysia japonica; 3 g ai/ha, 2 weeks) is reported as 0, the “phytotoxicity (visual assessment 0-10)” value (Zoysia japonica; 3 g ai/ha, 4 weeks) is reported as 0 and the “phytotoxicity (visual assessment 0-10)” value (Zoysia japonica; 6 g ai/ha, 2 weeks) is reported as 0. For the same molecule, the “phytotoxicity (visual assessment 0-10)” value (Zoysia japonica; 6 g ai/ha, 4 weeks) was 0, the “phytotoxicity (visual assessment 0-10)” value (Zoysia japonica; 12 g ai/ha, 2 weeks) was 0 and the “phytotoxicity (visual assessment 0-10)” value (Zoysia japonica; 12 g ai/ha, 4 weeks) was 0. The “phytotoxicity (visual assessment 0-10)” value (Zoysia japonica; 25 g ai/ha, 2 weeks) was 0, the “phytotoxicity (visual assessment 0-10)” value (Zoysia japonica; 25 g ai/ha, 4 weeks) was 0 and the “phytotoxicity (visual assessment 0-10)” value (Zoysia japonica; 50 g ai/ha, 2 weeks) was 0. The “phytotoxicity (visual assessment 0-10)” value (Zoysia japonica; 50 g ai/ha, 4 weeks) was 0, the “phytotoxicity (visual assessment 0-10)” value (Zoysia japonica; 100 g ai/ha, 2 weeks) was 0 and the “phytotoxicity (visual assessment 0-10)” value (Zoysia japonica; 100 g ai/ha, 4 weeks) was 0. For the same molecule, the “phytotoxicity (visual assessment 0-10)” value (Zoysia japonica; 200 g ai/ha, 2 weeks) was 0, the “phytotoxicity (visual assessment 0-10)” value (Zoysia japonica; 200 g ai/ha, 4 weeks) was 0 and the “phytotoxicity (visual assessment 0-10)” value (Zoysia japonica; 400 g ai/ha, 2 weeks) was 0. The “phytotoxicity (visual assessment 0-10)” value (Zoysia japonica; 400 g ai/ha, 4 weeks) was 0, the “phytotoxicity (visual assessment 0-10)” value (Kentucky bluegrass; 3 g ai/ha, 2 weeks) was 0 and the “phytotoxicity (visual assessment 0-10)” value (Kentucky bluegrass; 3 g ai/ha, 4 weeks) was 0. For the same molecule, the “phytotoxicity (visual assessment 0-10)” value (Kentucky bluegrass; 6 g ai/ha, 2 weeks) was 0, the “phytotoxicity (visual assessment 0-10)” value (Kentucky bluegrass; 6 g ai/ha, 4 weeks) was 0 and the “phytotoxicity (visual assessment 0-10)” value (Kentucky bluegrass; 12 g ai/ha, 2 weeks) was 0. The “phytotoxicity (visual assessment 0-10)” value (Kentucky bluegrass; 12 g ai/ha, 4 weeks) was 0, the “phytotoxicity (visual assessment 0-10)” value (Kentucky bluegrass; 25 g ai/ha, 2 weeks) was 0 and the “phytotoxicity (visual assessment 0-10)” value (Kentucky bluegrass; 25 g ai/ha, 4 weeks) was 0. For the same molecule, the “phytotoxicity (visual assessment 0-10)” value (Kentucky bluegrass; 50 g ai/ha, 2 weeks) was 0, the “phytotoxicity (visual assessment 0-10)” value (Kentucky bluegrass; 50 g ai/ha, 4 weeks) was 0 and the “phytotoxicity (visual assessment 0-10)” value (Kentucky bluegrass; 100 g ai/ha, 2 weeks) was 0. For the same molecule, the “phytotoxicity (visual assessment 0-10)” value (Kentucky bluegrass; 100 g ai/ha, 4 weeks) was 0, the “phytotoxicity (visual assessment 0-10)” value (Kentucky bluegrass; 200 g ai/ha, 2 weeks) was 1 and the “phytotoxicity (visual assessment 0-10)” value (Kentucky bluegrass; 200 g ai/ha, 4 weeks) was 0. The “phytotoxicity (visual assessment 0-10)” value (Kentucky bluegrass; 400 g ai/ha, 2 weeks) was 2, the “phytotoxicity (visual assessment 0-10)” value (Kentucky bluegrass; 400 g ai/ha, 4 weeks) was 1 and the “efficacy (0-100 scale)” value (Portulaca oleracea; Post-emergence, 12 g ai/ha) was 70. The “efficacy (0-100 scale)” value (Portulaca oleracea; Post-emergence, 25 g ai/ha) was 90, the “efficacy (0-100 scale)” value (Portulaca oleracea; Post-emergence, 50 g ai/ha) was 100 and the “efficacy (0-100 scale)” value (Portulaca oleracea; Post-emergence, 100 g ai/ha) was 100. For the same molecule, the “efficacy (0-100 scale)” value (Portulaca oleracea; Pre-emergence, 12 g ai/ha) was 90, the “efficacy (0-100 scale)” value (Portulaca oleracea; Pre-emergence, 25 g ai/ha) was 90 and the “efficacy (0-100 scale)” value (Portulaca oleracea; Pre-emergence, 50 g ai/ha) was 100. For the same molecule, the “efficacy (0-100 scale)” value (Portulaca oleracea; Pre-emergence, 100 g ai/ha) was 100, the “efficacy (0-100 scale)” value (Cyperus amuricus; Post-emergence, 12 g ai/ha) was 90 and the “efficacy (0-100 scale)” value (Cyperus amuricus; Post-emergence, 25 g ai/ha) was 95. The “efficacy (0-100 scale)” value (Cyperus amuricus; Post-emergence, 50 g ai/ha) was 100, the “efficacy (0-100 scale)” value (Cyperus amuricus; Post-emergence, 100 g ai/ha) was 100 and the “efficacy (0-100 scale)” value (Cyperus amuricus; Pre-emergence, 12 g ai/ha) was 90. The “efficacy (0-100 scale)” value (Cyperus amuricus; Pre-emergence, 25 g ai/ha) was 95, the “efficacy (0-100 scale)” value (Cyperus amuricus; Pre-emergence, 50 g ai/ha) was 100 and the “efficacy (0-100 scale)” value (Cyperus amuricus; Pre-emergence, 100 g ai/ha) was 100. For the same molecule, the “efficacy (0-100 scale)” value (Kummerowia striata; Post-emergence, 12 g ai/ha) was 70, the “efficacy (0-100 scale)” value (Kummerowia striata; Post-emergence, 25 g ai/ha) was 70 and the “efficacy (0-100 scale)” value (Kummerowia striata; Post-emergence, 50 g ai/ha) was 100. For the same molecule, the “efficacy (0-100 scale)” value (Kummerowia striata; Post-emergence, 100 g ai/ha) was 100, the “efficacy (0-100 scale)” value (Kummerowia striata; Pre-emergence, 12 g ai/ha) was 70 and the “efficacy (0-100 scale)” value (Kummerowia striata; Pre-emergence, 25 g ai/ha) was 90. The “efficacy (0-100 scale)” value (Kummerowia striata; Pre-emergence, 50 g ai/ha) was 90, the “efficacy (0-100 scale)” value (Kummerowia striata; Pre-emergence, 100 g ai/ha) was 100 and the “efficacy (0-100 scale)” value (Trifolium repens; Post-emergence, 12 g ai/ha) was 40. The “efficacy (0-100 scale)” value (Trifolium repens; Post-emergence, 25 g ai/ha) was 50, the “efficacy (0-100 scale)” value (Trifolium repens; Post-emergence, 50 g ai/ha) was 60 and the “efficacy (0-100 scale)” value (Trifolium repens; Post-emergence, 100 g ai/ha) was 60. For the same molecule, the “efficacy (0-100 scale)” value (Trifolium repens; Pre-emergence, 12 g ai/ha) was 30, the “efficacy (0-100 scale)” value (Trifolium repens; Pre-emergence, 25 g ai/ha) was 50 and the “efficacy (0-100 scale)” value (Trifolium repens; Pre-emergence, 50 g ai/ha) was 70. For the same molecule, the “efficacy (0-100 scale)” value (Trifolium repens; Pre-emergence, 100 g ai/ha) was 70, the “efficacy (0-100 scale)” value (Digitaria sanguinalis; Post-emergence, 12 g ai/ha) was 60 and the “efficacy (0-100 scale)” value (Digitaria sanguinalis; Post-emergence, 25 g ai/ha) was 70. For the same molecule, the “efficacy (0-100 scale)” value (Digitaria sanguinalis; Post-emergence, 50 g ai/ha) was 90, the “efficacy (0-100 scale)” value (Digitaria sanguinalis; Post-emergence, 100 g ai/ha) was 100 and the “efficacy (0-100 scale)” value (Digitaria sanguinalis; Pre-emergence, 12 g ai/ha) was 60. The “efficacy (0-100 scale)” value (Digitaria sanguinalis; Pre-emergence, 25 g ai/ha) was 85, the “efficacy (0-100 scale)” value (Digitaria sanguinalis; Pre-emergence, 50 g ai/ha) was 100 and the “efficacy (0-100 scale)” value (Digitaria sanguinalis; Pre-emergence, 100 g ai/ha) was 100. The “efficacy (0-100 scale)” value (Veronica officinalis; Post-emergence, 12 g ai/ha) was 20, the “efficacy (0-100 scale)” value (Veronica officinalis; Post-emergence, 25 g ai/ha) was 20 and the “efficacy (0-100 scale)” value (Veronica officinalis; Post-emergence, 50 g ai/ha) was 20. The “efficacy (0-100 scale)” value (Veronica officinalis; Post-emergence, 100 g ai/ha) was 20, the “efficacy (0-100 scale)” value (Veronica officinalis; Pre-emergence, 12 g ai/ha) was 30 and the “efficacy (0-100 scale)” value (Veronica officinalis; Pre-emergence, 25 g ai/ha) was 30. For the same molecule, the “efficacy (0-100 scale)” value (Veronica officinalis; Pre-emergence, 50 g ai/ha) was 40, the “efficacy (0-100 scale)” value (Veronica officinalis; Pre-emergence, 100 g ai/ha) was 50 and the “efficacy (0-100 scale)” value (Poa annua; Post-emergence, 12 g ai/ha) was 10. The “efficacy (0-100 scale)” value (Poa annua; Post-emergence, 25 g ai/ha) was 30, the “efficacy (0-100 scale)” value (Poa annua; Post-emergence, 50 g ai/ha) was 50 and the “efficacy (0-100 scale)” value (Poa annua; Post-emergence, 100 g ai/ha) was 70. For the same molecule, the “efficacy (0-100 scale)” value (Poa annua; Pre-emergence, 12 g ai/ha) was 50, the “efficacy (0-100 scale)” value (Poa annua; Pre-emergence, 25 g ai/ha) was 60 and the “efficacy (0-100 scale)” value (Poa annua; Pre-emergence, 50 g ai/ha) was 70. The “efficacy (0-100 scale)” value (Poa annua; Pre-emergence, 100 g ai/ha) was 80.
